What all share (test): NCI anticancer screen, dose series, 48 h
Experiment [1] concerns COLO 205.
The subject of experiment [2] is DU-145.
Experiment [3] relates to HCT-15.
Experiment [4] relates to IGROV-1.
Experiment [5] concerns MCF7.
For experiment [6], the system named is NCI-H226.
Experiment [7] concerns NCI-H23.
The subject of experiment [8] is NCI-H460.
The subject of experiment [9] is NCI-H522.
Experiment [10] concerns PC-3.
The subject of experiment [11] is SK-MEL-2.
For experiment [12], the system named is SK-MEL-5.
Experiment [13] deals with SN12C.
For experiment [14], the system named is SNB-19.
The test system of experiment [15] is TK-10.
Experiment [16] has as its system U-251.
Experiment [17] deals with UACC-257.
The test system of experiment [18] is CCRF-CEM.
The test system of experiment [19] is LOX IMVI.
The test system of experiment [20] is SR.

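48-hour exposure; five concentrations; linearly interpolated endpoints. Abbreviation: GI50, concentration required for 50% inhibition of growth.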 Active and inactive are the calls of the source. No stated cut-off is given here; in the data, active = GI50 up to about 1.1 µM and inactive = higher.

As for `Oc1ccc2ccccc2c1NCn1nc(CCCCCCCCc2nn(CNc3c(O)ccc4ccccc34)c(=S)o2)oc1=S`, the GI50 in experiment [1] was > 100 µM (inactive); in experiment [2], > 100 µM (inactive); in [3] it was 43.1 µM; in experiment [4] it was 6.7 µM (inactive); in [5] it was > 100 µM (inactive); in [6], > 100 µM (inactive). Also, the GI50 in experiment [7] is > 100 µM (inactive); in experiment [8], > 100 µM (inactive); in [9] it was 35.1 µM (inactive); in experiment [10] it was > 100 µM (inactive); in [11] it was > 100 µM (inactive); in experiment [12] it was 44.5 µM (inactive). For the same compound, the GI50 in experiment [13], in [14], in [15], in experiment [16] and in [17] was > 100 µM (inactive) each time.

As to `O=C(/C=C/c1ccc(Cl)cc1)c1ccncc1`, the GI50 in [18] was 43.7 µM (inactive); in experiment [1], > 100 µM (inactive); in experiment [3], 44.5 µM; in experiment [4], 48.2 µM (inactive); in [19], 27.1 µM (inactive); in experiment [6], > 100 µM (inactive). Besides, the GI50 in experiment [7] was > 100 µM (inactive); in experiment [8] it was 59.7 µM (inactive); in experiment [9], 64.9 µM (inactive); in experiment [11], > 100 µM (inactive); in [12] it was 53.2 µM (inactive); in experiment [13], 51.4 µM (inactive). For the same compound, the GI50 in experiment [14] was 98.4 µM (inactive); in experiment [20] it was 45.9 µM (inactive); in experiment [15] it was 33.4 µM (inactive); in experiment [16], 44 µM (inactive); in experiment [17], 43.5 µM (inactive).

Turning to `CC(=O)c1c(-c2ccc(Cl)cc2)c(C#N)c(=S)n(C2OC(CO)C(O)C(O)C2O)c1C` (stereo unspecified), the GI50 in experiment [18] was 25.9 µM (inactive); in experiment [1], 32.5 µM (inactive); in experiment [2] it was > 100 µM (inactive); in experiment [3] it was 82 µM; in experiment [4], 35.6 µM (inactive); in experiment [19], 30.1 µM (inactive). Further, the GI50 in experiment [6] is 58.3 µM (inactive); in experiment [7], 45.4 µM (inactive); in experiment [8], 37 µM (inactive); in experiment [9], 32.3 µM (inactive); in experiment [10], 31.5 µM (inactive); in experiment [11] it was 28.2 µM (inactive). The GI50 in experiment [12] is 37.2 µM (inactive); in experiment [13], 52.6 µM (inactive); in experiment [14] it was 31 µM (inactive); in experiment [20], 30.3 µM (inactive); in [15], 70.6 µM (inactive); in experiment [16] it was 36.8 µM (inactive). For the same compound, the GI50 in experiment [17] is 82.4 µM (inactive).

Turning to `Nc1nc2c(c(=O)[n-]1)[n+](CCO)cn2C1OC(CO)C(O)C1O` (stereo unspecified), the GI50 is > 100 µM (inactive) in experiment [18]; > 100 µM (inactive) in experiment [1]; more than 100 µM in [3]; > 100 µM (inactive) in [4]; > 100 µM (inactive) in experiment [19]; > 100 µM (inactive) in [6]. Also, the GI50 in experiment [8], in experiment [9], in experiment [11], in [12], in experiment [13] and in experiment [20] was > 100 µM (inactive) throughout. The GI50 in [15], in experiment [16] and in experiment [17] was > 100 µM (inactive) throughout.

For the compound `C=C(C(=C)P(=S)(C(C)C)C(C)C)P(=S)(C(C)C)C(C)C`, the GI50 in experiment [18] is > 100 µM (inactive); in experiment [1], > 100 µM (inactive); in experiment [3], more than 100 µM; in experiment [4], > 100 µM (inactive); in [19], > 100 µM (inactive); in experiment [6], > 100 µM (inactive). The GI50 in [7], in experiment [8], in experiment [9], in experiment [12], in experiment [13] and in experiment [14] was > 100 µM (inactive) in each case. Besides, the GI50 in experiment [20], in [15], in experiment [16] and in [17] was > 100 µM (inactive) each time.

For the compound `CCON1CC(C(=O)OC)=C(O)C1=O`, the GI50 is > 100 µM (inactive) in experiment [1]; > 100 µM (inactive) in experiment [2]; more than 100 µM in [3]; > 100 µM (inactive) in [4]; > 100 µM (inactive) in experiment [5]; > 100 µM (inactive) in experiment [7]. The GI50 in experiment [8], in [9], in experiment [10], in [11], in experiment [12] and in [14] was > 100 µM (inactive) throughout. The GI50 in experiment [15], in [16] and in experiment [17] was > 100 µM (inactive) in each case.

Consider `N/N=C(\CCN1CCCC1)CC(c1ccccc1)c1c(O)c2ccccc2oc1=O` (stereo unspecified), for which the GI50 is > 100 µM (inactive) in experiment [18]; > 100 µM (inactive) in [1]; more than 100 µM in [3]; > 100 µM (inactive) in experiment [4]; > 100 µM (inactive) in [19]; > 100 µM (inactive) in experiment [6]. The GI50 in experiment [7], in experiment [8], in experiment [9], in experiment [11], in experiment [12] and in experiment [13] was > 100 µM (inactive) each time. Moreover, the GI50 in experiment [14], in experiment [20], in [15], in experiment [16] and in experiment [17] was > 100 µM (inactive) each time.

Take `CC(C)c1ccccc1NC(=O)CCc1n[nH]c(=S)o1`: the GI50 in experiment [18] was > 64.1 µM (inactive); in [1], 27.2 µM (inactive); in experiment [3], more than 41.7 µM; in experiment [4], > 100 µM (inactive); in experiment [19] it was > 100 µM (inactive); in experiment [6] it was > 100 µM (inactive). The GI50 in [7] is > 100 µM (inactive); in [8], > 49.9 µM (inactive); in experiment [9], > 100 µM (inactive); in [12], > 100 µM (inactive); in experiment [13], > 100 µM (inactive); in [14] it was > 100 µM (inactive). The GI50 was > 100 µM (inactive) in experiment [20], > 100 µM (inactive) in experiment [15], > 75.9 µM (inactive) in [16] and > 100 µM (inactive) in experiment [17].

Consider `Cc1nc2ccccc2[s+]c1-c1cnc(NC#N)nc1C(=O)Nc1cccc(Cl)c1`, for which the GI50 was > 100 µM (inactive) in experiment [18]; > 100 µM (inactive) in experiment [1]; more than 100 µM in experiment [3]; > 100 µM (inactive) in experiment [4]; > 100 µM (inactive) in [19]; > 100 µM (inactive) in [6]. The GI50 in experiment [7], in experiment [8], in [9], in experiment [11], in experiment [12] and in experiment [13] was > 100 µM (inactive) throughout. Also, the GI50 in [14], in experiment [20], in experiment [15], in experiment [16] and in experiment [17] was > 100 µM (inactive) throughout.

For `Cc1ccc(S(=O)(=O)OC2CS[S+]([O-])CC2OS(=O)(=O)c2ccc(C)cc2)cc1` (stereo unspecified), the GI50 is 11.8 µM (inactive) in experiment [1]; 19 µM in experiment [3]; 18 µM (inactive) in experiment [4]; 12.1 µM (inactive) in experiment [19]; 19.4 µM (inactive) in experiment [6]; 14.7 µM (inactive) in experiment [7]. Also, the GI50 is 22.3 µM (inactive) in experiment [8]; 10.3 µM (inactive) in experiment [9]; 16 µM (inactive) in [12]; 15.2 µM (inactive) in [13]; 17.6 µM (inactive) in experiment [14]; 1.83 µM (inactive) in experiment [20]. Besides, the values for the GI50 in [15], in experiment [16] and in experiment [17] were 15.1 µM (inactive), 14.8 µM (inactive) and 14.6 µM (inactive), respectively.

On to `Cc1cc2c(c(=O)n1C)SCC2`, for which the GI50 in experiment [18] is > 100 µM (inactive); in experiment [1] it was > 100 µM (inactive); in experiment [2], > 100 µM (inactive); in experiment [3] it was more than 100 µM; in [4], > 100 µM (inactive); in experiment [19], > 100 µM (inactive). For the same compound, the GI50 in experiment [6], in [7], in experiment [8], in experiment [9], in experiment [10] and in experiment [11] was > 100 µM (inactive) in each case. Moreover, the GI50 in [12], in experiment [13], in experiment [14], in experiment [20], in experiment [15] and in experiment [16] was > 100 µM (inactive) in each case. In addition, the GI50 in experiment [17] was > 100 µM (inactive).

Consider `Cc1ccc(S(=O)(=O)NC(CCC(=O)NNc2ccccc2)C(=O)NNc2ccccc2)cc1` (stereo unspecified), for which the GI50 in experiment [18] was 51.4 µM (inactive); in experiment [1] it was 13.4 µM (inactive); in experiment [3] it was 15.4 µM; in experiment [4] it was 91 µM (inactive); in [19], > 100 µM (inactive); in experiment [5], 23.1 µM (inactive). In addition, the GI50 in [6] is > 100 µM (inactive); in experiment [7], 61.4 µM (inactive); in experiment [8], 16.8 µM (inactive); in experiment [9], > 100 µM (inactive); in experiment [10], 4.14 µM (inactive); in experiment [11], 13.5 µM (inactive). Besides, the GI50 in [12] is 98.4 µM (inactive); in experiment [14] it was > 100 µM (inactive); in [20] it was 18.9 µM (inactive); in experiment [15] it was 1.95 µM (inactive); in experiment [16], 3.08 µM (inactive); in experiment [17] it was 15.1 µM (inactive).
